Data as given in PubChem BioAssay (NCI).
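In this assay, cells in 96-well plates receive the compound at five concentrations for 48 hours. Endpoints are linearly interpolated between the surrounding concentrations. Here, GI50 denotes the concentration required for 50% inhibition of growth. TGI is the concentration that stops growth completely.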

How the values were obtained:
Experiment in all cases: inhibition of tumour cell growth, NCI panel, 48 h
UACC-62 melanoma = system: UACC-62 melanoma
CAKI-1 renal = system: CAKI-1 renal
NCI-H460 lung = system: NCI-H460 lung
SF-295 CNS = system: SF-295 CNS
SW-620 colon = system: SW-620 colon
MALME-3M melanoma = system: MALME-3M melanoma
DU-145 prostate = system: DU-145 prostate
IGROV1 ovarian = system: IGROV1 ovarian
UO-31 renal = system: UO-31 renal
HS 578T breast = system: HS 578T breast

`CN1CCCN2CCN(C)CCN(CC1)CC2` was tested, and the TGI (UACC-62 melanoma) was over 100 µM, the TGI (CAKI-1 renal) was over 100 µM and the TGI (NCI-H460 lung) was over 100 µM. The TGI (SF-295 CNS) was over 100 µM, the TGI (SW-620 colon) was over 100 µM and the TGI (MALME-3M melanoma) was over 100 µM. The TGI (DU-145 prostate) was over 100 µM, the TGI (IGROV1 ovarian) was over 100 µM and the TGI (UO-31 renal) was over 100 µM. For the same compound, the TGI (HS 578T breast) was over 100 µM.
`O=C(c1ccccc1)c1ccc(C(c2c(O)c3ccccc3oc2=O)c2c(O)c3ccccc3oc2=O)cc1` gave a TGI (UACC-62 melanoma) of 39.5 µM, a TGI (CAKI-1 renal) of 25.3 µM and a TGI (NCI-H460 lung) of over 100 µM. For the same compound, the TGI (SF-295 CNS) was 53.3 µM, the TGI (SW-620 colon) was over 100 µM and the TGI (MALME-3M melanoma) was 37.6 µM. The TGI (DU-145 prostate) was over 85.7 µM, the TGI (IGROV1 ovarian) was over 60.9 µM and the TGI (UO-31 renal) was 33 µM. The TGI (HS 578T breast) was 64.5 µM.
`CCOC(=O)c1c(C)n(Cc2ccccc2)c(=O)c2ccccc2c(=O)c2c(=O)ccc(=O)c1=2` was tested, and the TGI (UACC-62 melanoma) was over 100 µM, the TGI (CAKI-1 renal) was over 100 µM and the TGI (NCI-H460 lung) was over 100 µM. It also gave a TGI (SF-295 CNS) of over 100 µM, a TGI (SW-620 colon) of over 100 µM and a TGI (MALME-3M melanoma) of 41.9 µM. For the same compound, the TGI (DU-145 prostate) was over 100 µM, the TGI (IGROV1 ovarian) was 67.9 µM and the TGI (UO-31 renal) was 34.7 µM. It also gave a TGI (HS 578T breast) of over 100 µM.
Work on `CC(=O)OCC1OC(On2ccccc2=S)C(OC(C)=O)C(OC(C)=O)C1OC(C)=O` (stereo not given) yielded a TGI (UACC-62 melanoma) of over 100 µM, a TGI (CAKI-1 renal) of over 100 µM and a TGI (NCI-H460 lung) of over 100 µM. It also gave a TGI (SF-295 CNS) of over 100 µM, a TGI (SW-620 colon) of over 100 µM and a TGI (MALME-3M melanoma) of over 100 µM. For the same compound, the TGI (DU-145 prostate) was over 100 µM, the TGI (IGROV1 ovarian) was over 100 µM and the TGI (UO-31 renal) was over 100 µM. It also gave a TGI (HS 578T breast) of over 100 µM.
`CCOc1c2ccsc2c(OCC)c2ccsc12` showed a TGI (UACC-62 melanoma) of over 100 µM, a TGI (CAKI-1 renal) of over 100 µM and a TGI (NCI-H460 lung) of over 100 µM. The TGI (SF-295 CNS) was 9.84 µM, the TGI (SW-620 colon) was over 100 µM and the TGI (MALME-3M melanoma) was over 100 µM. For the same compound, the TGI (DU-145 prostate) was over 100 µM, the TGI (IGROV1 ovarian) was over 100 µM and the TGI (UO-31 renal) was over 100 µM. It also gave a TGI (HS 578T breast) of over 73.7 µM.
For `COC(=O)c1ccccc1C1CN=NC12Cc1ccc3ccccc3c1C2=O` (stereo not given), the TGI (UACC-62 melanoma) was over 100 µM, the TGI (CAKI-1 renal) was over 100 µM and the TGI (NCI-H460 lung) was over 100 µM. For the same compound, the TGI (SF-295 CNS) was over 100 µM, the TGI (SW-620 colon) was over 100 µM and the TGI (MALME-3M melanoma) was over 100 µM. The TGI (DU-145 prostate) was over 100 µM, the TGI (IGROV1 ovarian) was over 100 µM and the TGI (UO-31 renal) was over 100 µM. For the same compound, the TGI (HS 578T breast) was over 100 µM.
`O=C(Cn1c(=O)ccn(C2OC(CO)C(O)C2F)c1=O)c1ccc(F)cc1` (stereo not given) showed a TGI (UACC-62 melanoma) of over 100 µM, a TGI (CAKI-1 renal) of over 100 µM and a TGI (NCI-H460 lung) of over 100 µM. The TGI (SF-295 CNS) was over 100 µM, the TGI (SW-620 colon) was over 100 µM and the TGI (MALME-3M melanoma) was over 100 µM. It also gave a TGI (DU-145 prostate) of over 100 µM, a TGI (IGROV1 ovarian) of over 100 µM and a TGI (UO-31 renal) of over 100 µM. It also gave a TGI (HS 578T breast) of over 100 µM.
`Cc1cc2nc3n[nH]c(N)c3nc2cc1C` gave a TGI (UACC-62 melanoma) of over 100 µM, a TGI (CAKI-1 renal) of over 100 µM and a TGI (NCI-H460 lung) of over 100 µM. For the same compound, the TGI (SF-295 CNS) was over 100 µM, the TGI (SW-620 colon) was over 100 µM and the TGI (MALME-3M melanoma) was over 100 µM. The TGI (DU-145 prostate) was over 100 µM, the TGI (IGROV1 ovarian) was over 100 µM and the TGI (UO-31 renal) was over 100 µM. The TGI (HS 578T breast) was over 100 µM.
Work on `Cc1ccc(Nc2nc(=S)[nH]c3[nH]ncc23)cc1` yielded a TGI (UACC-62 melanoma) of over 100 µM, a TGI (CAKI-1 renal) of over 100 µM and a TGI (NCI-H460 lung) of over 100 µM. It also gave a TGI (SF-295 CNS) of over 100 µM, a TGI (SW-620 colon) of over 100 µM and a TGI (MALME-3M melanoma) of over 100 µM. The TGI (DU-145 prostate) was over 100 µM, the TGI (IGROV1 ovarian) was over 100 µM and the TGI (UO-31 renal) was over 100 µM. For the same compound, the TGI (HS 578T breast) was over 100 µM.
`CN(C)c1nc(N(C)C)nc(N(C)C)n1` gave a TGI (UACC-62 melanoma) of over 150 µM, a TGI (CAKI-1 renal) of over 140 µM and a TGI (NCI-H460 lung) of over 150 µM. The TGI (SF-295 CNS) was over 150 µM, the TGI (SW-620 colon) was over 150 µM and the TGI (MALME-3M melanoma) was over 150 µM. The TGI (DU-145 prostate) was over 150 µM, the TGI (IGROV1 ovarian) was over 135 µM and the TGI (UO-31 renal) was over 150 µM. For the same compound, the TGI (HS 578T breast) was over 150 µM.
`CCCCCCCCCOC(=O)c1cnc(Cl)cn1` gave a TGI (UACC-62 melanoma) of 33.3 µM, a TGI (CAKI-1 renal) of 31.8 µM and a TGI (NCI-H460 lung) of 41.5 µM. It also gave a TGI (SF-295 CNS) of 34.6 µM, a TGI (SW-620 colon) of 32.5 µM and a TGI (MALME-3M melanoma) of 39.4 µM. For the same compound, the TGI (DU-145 prostate) was 33.8 µM, the TGI (IGROV1 ovarian) was 36 µM and the TGI (UO-31 renal) was 34.4 µM. For the same compound, the TGI (HS 578T breast) was 68 µM.
For `CCOC(=O)C1(C(=O)OCC)C[C@]23OCCC(=O)[C@H]2[C@H]2C(=O)OC(C)(C)O[C@]23C1`, the TGI (UACC-62 melanoma) was over 100 µM, the TGI (CAKI-1 renal) was over 100 µM and the TGI (NCI-H460 lung) was over 100 µM. It also gave a TGI (SF-295 CNS) of over 100 µM, a TGI (SW-620 colon) of over 100 µM and a TGI (MALME-3M melanoma) of over 100 µM. It also gave a TGI (DU-145 prostate) of over 100 µM, a TGI (IGROV1 ovarian) of over 100 µM and a TGI (UO-31 renal) of over 100 µM. It also gave a TGI (HS 578T breast) of over 100 µM.
`CCc1ccc(-c2nnc(COc3ccc(-c4nc5ccc(C)cc5[nH]4)cc3OC)o2)cc1` gave a GI50 (UACC-62 melanoma) of 2120 nM, a TGI (UACC-62 melanoma) of 5.09 µM and a GI50 (CAKI-1 renal) of 2070 nM. For the same compound, the TGI (CAKI-1 renal) was 4.92 µM, the GI50 (NCI-H460 lung) was 3.38 µM and the TGI (NCI-H460 lung) was 18.4 µM. It also gave a GI50 (SF-295 CNS) of 2330 nM, a TGI (SF-295 CNS) of 5.75 µM and a GI50 (SW-620 colon) of 3.75 µM. For the same compound, the TGI (SW-620 colon) was 62.4 µM, the GI50 (MALME-3M melanoma) was 1560 nM and the TGI (MALME-3M melanoma) was 3.11 µM. The GI50 (DU-145 prostate) was 5.98 µM, the TGI (DU-145 prostate) was over 100 µM and the GI50 (IGROV1 ovarian) was 4.94 µM. For the same compound, the TGI (IGROV1 ovarian) was over 100 µM, the GI50 (UO-31 renal) was 1630 nM and the TGI (UO-31 renal) was 3.17 µM. The GI50 (HS 578T breast) was 2070 nM and the TGI (HS 578T breast) was 5.01 µM.
Work on `COc1cc(NS(C)(=O)=O)ccc1NCc1cnc2ccc3[nH]c(C)ccc3c12` yielded a TGI (UACC-62 melanoma) of over 100 µM, a TGI (CAKI-1 renal) of 68.8 µM and a TGI (NCI-H460 lung) of over 100 µM. It also gave a TGI (SF-295 CNS) of over 100 µM, a TGI (SW-620 colon) of over 100 µM and a TGI (MALME-3M melanoma) of over 100 µM. The TGI (DU-145 prostate) was 89.1 µM, the TGI (IGROV1 ovarian) was over 100 µM and the TGI (UO-31 renal) was 60.6 µM. For the same compound, the TGI (HS 578T breast) was over 100 µM.
`CN(C)CCCNc1c(O)c2c(c(O)c1Cl)C(=O)C=CC2=O` showed a TGI (UACC-62 melanoma) of 3.18 µM, a TGI (CAKI-1 renal) of over 10 µM and a TGI (NCI-H460 lung) of 3.81 µM. For the same compound, the TGI (SF-295 CNS) was 3.27 µM, the TGI (SW-620 colon) was 3.39 µM and the TGI (MALME-3M melanoma) was 3.25 µM. It also gave a TGI (DU-145 prostate) of 3.27 µM, a TGI (IGROV1 ovarian) of 3.45 µM and a TGI (UO-31 renal) of over 10 µM. It also gave a TGI (HS 578T breast) of 3.65 µM.
`CC(C)(C)OC(=O)[N+](=N)C(=O)C1CCC(=O)N1C(=O)OCc1ccccc1` (stereo not given) was tested, and the TGI (UACC-62 melanoma) was over 100 µM, the TGI (CAKI-1 renal) was over 100 µM and the TGI (NCI-H460 lung) was over 100 µM. The TGI (SF-295 CNS) was over 100 µM, the TGI (SW-620 colon) was over 100 µM and the TGI (MALME-3M melanoma) was over 100 µM. For the same compound, the TGI (DU-145 prostate) was over 100 µM, the TGI (IGROV1 ovarian) was over 100 µM and the TGI (UO-31 renal) was over 100 µM. It also gave a TGI (HS 578T breast) of over 100 µM.
`C/C(=N/NC(=S)Nc1ccccc1Cl)c1ccccn1` showed a TGI (UACC-62 melanoma) of 7.49 µM, a TGI (CAKI-1 renal) of 19.7 µM and a TGI (NCI-H460 lung) of 9.85 µM. It also gave a TGI (SF-295 CNS) of 9.57 µM, a TGI (SW-620 colon) of 29.9 µM and a TGI (MALME-3M melanoma) of 13 µM. For the same compound, the TGI (DU-145 prostate) was 12.8 µM, the TGI (IGROV1 ovarian) was 13.9 µM and the TGI (UO-31 renal) was 12.3 µM. It also gave a TGI (HS 578T breast) of 40.2 µM.
